Measured values: PMC9065200, “Engineering of donor-acceptor-donor curcumin analogues as near-infrared fluorescent probes for in vivo imaging of amyloid-β species” (Theranostics, 2022)

Key:
[1] = target: T1, Aβ42 monomers (Homo sapiens, UniProt P05067); assay: fluorescence titration, one-site binding regression; settings: read-out: Aβ monomers / Kd
T1 construct: gene APP; commercial Abeta(1-42) peptide (Nanjing Peptide Biotech), cut from APP precursor; monomer stock in hexafluoroisopropanol
Description: fluorescence titration, one-site binding regression on Aβ42 monomers

[2] = target: T2, Aβ42 oligomers (Homo sapiens, UniProt P05067); assay: as above; settings: read-out: Aβ oligomers / Kd
T2 construct: gene APP; commercial Abeta(1-42) peptide, cut from APP precursor; soluble oligomers prepared via HFIP/water, stirred 24-48 h at ~22 °C, confirmed by TEM
Description: fluorescence titration, one-site binding regression on Aβ42 oligomers

T2 sequence (P05067 672-713): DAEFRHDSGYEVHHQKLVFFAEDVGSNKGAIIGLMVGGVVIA
T1 sequence (P05067 672-713): as above

In the case of `CN(C)c1ccc2cc(/C=C/C3=CC(/C=C/C=C4N(C)c5ccccc5C4(C)C)=[O+][B-](F)(F)O3)ccc2c1` [compound 7, probe 7], the Kd [1] is reported as 0.0642 ± 0.00538 µM and the Kd [2] is reported as 0.167 ± 0.0199 µM.
